Patent US7256178B2, “Physiologically active substances” (priority 2002, dated 2007)

What was measured:
[1] = Physicochemical properties: solubility
[2] = Stability in an aqueous solution (HPLC); format: physicochemical; conditions: pH 7 Britton-Robinson buffer solution, 25° C., 24 hours
Experimental: The compound of the formula (I) was dissolved in DMSO at a concentration of 10 to 20 mM, and the solution was diluted with a pH 7 Britton-Robinson buffer solution to about 500-fold. This solution was used as a sample solution, and was incubated at 25° C. for 24 hours.
The sample solution before and after the incubation was analyzed using high-performance liquid chromatography to obtain a chromatogram. The percentage of the compound remaining in the sample solution after the incubation was determined from the peak area of the chromatogram.

VEGF promoter = assay: VEGF transcription inhibitory activity (VEGF-PLAP reporter, U251/1-8 cells under hypoxic conditions); format: cell-based; conditions: Homo sapiens, U-251, hypoxic (2% O2) incubator 18 hours, n=2 to 3
Description: In order to prepare a reporter system in which transcription from a VEGF promoter is reflected, a VEGF promoter sequence was cloned and inserted into a placental alkaline phosphatase (PLAP) vector to construct a reporter vector.
In order to obtain a promoter region of human VEGF, a VEGF genome was cloned from a phage library. Based on VEGF cDNA (GenBank accession number: X62568), a PCR primer in the sequence described as SEQ ID NO: 1 or SEQ ID NO: 2 was designed to conduct PCR, thereby obtaining about a fragment of 340 bp. A human genomic phage library (human genomic library, Clontech) was screened using this fragment as a probe to obtain pUC18-VEGFA containing a VEGF5′ franking region of about 5.4 kb. This pUC18-VEGFA was cut with Kpn I/Nhe I to obtain a VEGF promoter region of about 2.3 kb, and the region was inserted into the multicloning site Kpn I/Nhe I of the placental alkaline phosphatase (PLAP) reporter vector (Goto et al., Mol. Pharmacol., 49, 860-873, 1996) to construct a VEGF-PLAP vector.
The above-described VEGF-PLAP vector was introduced into U251 cells cultured in a Dulbecco's modified Eagle's medium containing 10% fetal bovine serum (DMEM, manufactured by Sigma Co.), and cultured in the presence of 1 mg/mL G418 (Merck & Co., Inc.) to establish a G418-resistant stable clone (U251/1-8 cells).
As in a report by Minchenko et al. (Cell. Mol. Biol. Res., 40, 35-39, 1994), U251/1-8 cells were confirmed to be a reporter system which secretes PLAP into a culture medium under hypoxic conditions (2% O2 incubator), and in which transcription from a VEGF promoter is reflected. A compound inhibiting VEGF production induced by hypoxic stimulation was screened using this clone.
In order to eliminate influence of the alkali phosphatase in the serum, the U251/1-8 cells were washed with a sufficient amount of PBS (Phosphate buffered saline) twice, and treated at 65° C. for 20 minutes to inactivate the alkaline phosphatase in the serum. 4×10^4 cells/180 μL per well of the cells diluted in the DMEM culture medium containing 10% of this serum were plated in a 96-well plate.
The cells were cultured in a CO2 incubator (5% CO2) at 37° C. overnight, and 20 μL of the above-described culture solution containing the test compound at threefold serial dilutions was added. Subsequently, the cells were cultured in hypoxic (2% O2) incubator for 18 hours. To measure the PLAP activity in the culture supernatant liquid, 10 μL of the culture supernatant liquid was added to 50 μL of a 0.28 M Na2CO3—NaHCO3 buffer solution (pH 10.0, 8.0 mM MgSO4), and finally 50 μL of an alkaline phosphatase substrate (Lumistain, Genome Science Laboratories Co., Ltd.) was added thereto. After the reaction for one hour, chemiluminescence was detected using a microplate reader (PerkinElmer) to measure the PLAP activity as the alkaline phosphatase activity. The PLAP activity under normoxic conditions was defined as 0%, the PLAP activity of the cells when treated under hypoxic conditions was defined as 100%, and the concentration for inhibiting 50% of the PLAP activity was defined as the IC50 value of PLAP. The IC50 values of the 6-deoxy 11107D derivatives shown in examples were determined (n=2 to 3).

[3] = system: WiDr human colon cancer cells; assay: Action of inhibiting proliferation of WiDr human colon cancer cells (MTT); format: cell-based; conditions: 72 h, three days, n=2 to 3, read-out: WiDr human colon cancer cell proliferation inhibitory activity (IC50: nM)
Experimental: 2×10^3 cells/well of WiDr human colon cancer cells cultured in a Dulbecco's modified Eagle's medium containing 10% fetal bovine serum, penicillin (100 units/mL) and streptomycin (100 μg/mL) (DMEM, manufactured by Sigma Co.) were plated in a 96-well plate. The cells were cultured in a CO2 incubator overnight, and 20 μL of the above-described culture solution containing the test compound at threefold serial dilutions was added for culturing the cells. After three days, 50 μL of a 3.3 mg/mL MTT solution was added, and the cells were further cultured for one hour. Then, formazan generated by reduction using living cells was extracted with 100 μL of DMSO to measure the absorbance (A540/A660), which was used as an index of the number of living cells.
The concentration for inhibiting 50% of proliferation of WiDr human colon cancer cells (IC50 value) of the compound of the formula (I) was determined (n=2 to 3).

[4] = Body weight reduction (acute toxicity) in the WiDr nude mouse test; format: in vivo; conditions: nude mice, day when body weights were lightest, relative to day of start of administration
Experimental: (§1) In order to examine the solid cancer growth inhibitory activity of the compound of the formula (I) in vivo, WiDr human colon cancer cells were subcutaneously implanted into the body of each nude mouse. […] The control group consisted of ten mice, and the 6-deoxy 11107D derivative-administration group consisted of five mice. The derivative was intravenously injected at 0.625 mg/kg/day, 1.25 mg/kg/day, 2.5 mg/kg/day, 5 mg/kg/day, or 10 mg/kg/day to each mouse of the administration group, and a vehicle was administered to each mouse of the control group.
(§2) The tumor volumes on the 15th day were measured to determine the relative tumor weight ratio (T/C %), based on the tumor weight of each mouse of the control group as 100%. The body weights on the day of the start of administration, 5th day, 8th day, 12th day and 15th (or 16th) day were measured to examine the relative body weight variations in the case of administering the representative compounds, based on the body weights on the day of the start of administration as 100%. The minimum relative body weight ratios, which are the relative body weight ratios on the day when the body weights were lightest, are shown in Table 3.

WiDr human colon tumors = assay: Solid cancer growth inhibitory action, WiDr cells subcutaneously implanted in nude mice; format: in vivo, nude mouse; conditions: 15th day, control group as 100%
Experimental: as §1, §2

| SMILES | Remaining percentage (%) [2] [%] | IC50 (VEGF promoter) [nM] | IC50 [3] [nM] | also measured |
| --- | --- | --- | --- | --- |
| CCC(O)C(C)C1OC1CC(C)/C=C/C=C(\C)C1OC(=O)CC(O)CCC(C)C(OC(C)=O)/C=C/C1C (stereo not shown) [6-deoxy 11107B] | – | – | – | Solubility in organic solvents ([1]; dimethyl sulfoxide, pyridine, methanol, acetone): soluble in dimethyl sulfoxide, pyridine, methanol, and acetone; Solubility in water ([1]; water): poorly soluble in water |
| CCC(O)C(C)C1OC1CC(C)(O)/C=C/C=C(\C)C1OC(=O)CC(O)CCC(C)C(OC(=O)N(C)CCN(CC)CC)/C=C/C1C (stereo not shown) [Compound 20, (8E,12E,14E)-7-(N-(2-(N′,N′-diethylamino)ethyl-N-methyl)carbamoyloxy)-3,16,21-trihydroxy-6,10,12,16,20-pentamethyl-18,19-epoxytricosa-8,12,14-trien-11-olide] | 95.6 | 1.1 | 0.2 | – |
| CCC(O)C(C)C1OC1CC(C)(O)/C=C/C=C(\C)C1OC(=O)CC(O)CCC(C)C(OC(=O)N2CCCN(CC)CC2)/C=C/C1C (stereo not shown) [Compound 43, (8E,12E,14E)-7-((4-ethylhomopiperazin-1-yl)carbonyl)oxy-3,16,21-trihydroxy-6,10,12,16,20-pentamethyl-18,19-epoxytricosa-8,12,14-trien-11-olide] | 95.8 | 2.3 | 0.5 | Minimum relative body weight ratio ([4]; 1.25 mg/kg/day intravenously): 0.83; WiDr human colon tumor growth inhibitory activity T/C(%) (WiDr human colon tumors; 1.25 mg/kg/day intravenously): 9% |
| CCC(O)C(C)C1OC1CC(C)(O)/C=C/C=C(\C)C1OC(=O)CC(O)CCC(C)C(OC(=O)N(C)C2CCN(C)CC2)/C=C/C1C (stereo not shown) [Compound 29, (8E,12E,14E)-3,16,21-trihydroxy-6,10,12,16,20-pentamethyl-7-(N-methyl-N-(1-methylpiperidin-4-yl)carbamoyloxy)-18,19-epoxytricosa-8,12,14-trien-11-olide] | – | 1.3 | 0.3 | – |
| CCC(O)C(C)C1OC1CC(C)(O)/C=C/C=C(\C)C1OC(=O)CC(O)CCC(C)C(OC(=O)N2CCC(N3CCCCC3)CC2)/C=C/C1C (stereo not shown) [Compound 21, (8E,12E,14E)-3,16,21-trihydroxy-6,10,12,16,20-pentamethyl-7-((4-(piperidin-1-yl)piperidin-1-yl)carbonyl)oxy-18,19-epoxytricosa-8,12,14-trien-11-olide] | 94.8 | 2 | 0.6 | – |
| CCC(O)C(C)C1OC1CC(C)(O)/C=C/C=C(\C)C1OC(=O)CC(O)CCC(C)C(OC(=O)N2C[C@@H]3C[C@H]2CN3C)/C=C/C1C (stereo partly drawn) [Compound 55, (8E,12E,14E)-3,16,21-trihydroxy-6,10,12,16,20-pentamethyl-7-(((1S,4S)-5-methyl-2,5-diazabicyclo[2.2.1]heptan-2-yl)carbonyl)oxy-18,19-epoxytricosa-8,12,14-trien-11-olide] | 95.7 | 1.1 | 0.6 | Minimum relative body weight ratio ([4]; 0.625 mg/kg/day intravenously): 0.80; WiDr human colon tumor growth inhibitory activity T/C(%) (WiDr human colon tumors; 0.625 mg/kg/day intravenously): 11% |
| CCC(O)C(C)C1OC1CC(C)(O)/C=C/C=C(\C)C1OC(=O)CC(O)CCC(C)C(OC(=O)N2CCCN(C(C)C)CC2)/C=C/C1C (stereo not shown) [Compound 39, (8E,12E,14E)-3,16,21-trihydroxy-7-((4-isopropylhomopiperazin-1-yl)carbonyl)oxy-6,10,12,16,20-pentamethyl-18,19-epoxytricosa-8,12,14-trien-11-olide] | 95.9 | 1.3 | 0.5 | – |
| CCC(O)C(C)C1OC1CC(C)(O)/C=C/C=C(\C)C1OC(=O)CC(O)CCC(C)C(OC(=O)NCCN(CC)CC)/C=C/C1C (stereo not shown) [Compound 22, (8E,12E,14E)-7-(N-(2-(N′,N′-diethylamino)ethyl)carbamoyloxy)-3,16,21-trihydroxy-6,10,12,16,20-pentamethyl-18,19-epoxytricosa-8,12,14-trien-11-olide] | 95.4 | 2.5 | 1.1 | – |
| CCC(O)C(C)C1OC1CC(C)(O)/C=C/C=C(\C)C1OC(=O)CC(O)CCC(C)C(OC(=O)N2CCN(C)CC2)/C=C/C1C (stereo not shown) [Compound 18, (8E,12E,14E)-3,16,21-trihydroxy-6,10,12,16,20-pentamethyl-7-((4-methylpiperazin-1-yl)carbonyl)oxy-18,19-epoxytricosa-8,12,14-trien-11-olide] | 95.0 | 1 | 0.5 | – |
| CCC(O)C(C)C1OC1CC(C)(O)/C=C/C=C(\C)C1OC(=O)CC(O)CCC(C)C(OC(=O)N2CCN(CC(C)(C)C)CC2)/C=C/C1C (stereo not shown) [Compound 23, (8E,12E,14E)-7-((4-(2,2-dimethylpropyl)piperazin-1-yl)carbonyl)oxy-3,16,21-trihydroxy-6,10,12,16,20-pentamethyl-18,19-epoxytricosa-8,12,14-trien-11-olide] | – | 14.7 | 3.8 | – |
| CCC(O)C(C)C1OC1CC(C)(O)/C=C/C=C(\C)C1OC(=O)CC(O)CCC(C)C(OC(=O)N2CCCN(C)CC2)/C=C/C1C (stereo not shown) [Compound 19, (8E,12E,14E)-3,16,21-trihydroxy-6,10,12,16,20-pentamethyl-7-((4-methylhomopiperazin-1-yl)carbonyl)oxy-18,19-epoxytricosa-8,12,14-trien-11-olide] | 95.5 | 1.1 | 0.3 | – |
| CCC(O)C(C)C1OC1CC(C)(O)/C=C/C=C(\C)C1OC(=O)CC(O)CCC(C)C(OC(=O)N2CCN(C(C)C)CC2)/C=C/C1C (stereo not shown) [Compound 44, (8E,12E,14E)-3,16,21-trihydroxy-7-((4-isopropylpiperazin-1-yl)carbonyl)oxy-6,10,12,16,20-pentamethyl-18,19-epoxytricosa-8,12,14.-trien-11-olide] | 95.4 | 2.4 | 0.6 | – |
